# Assay results from patent US20080070883A1, “Use of LXR modulators for the prevention and treatment of skin aging” (Wyeth, priority 2006, published 2008).
# Tests used:
# LXRα = assay: TaqMan quantitative PCR, LXRα gene expression in NHEKs; assay type: cell-based, human; settings: 1 μM, FIG. 1A
# LXRβ = assay: TaqMan quantitative PCR, LXRβ gene expression in NHEKs; assay type: cell-based, human; settings: UV-exposed (8 J/m^2), 1 μM, FIG. 1B
# TNFα = assay: TaqMan quantitative PCR, TNFα gene expression in NHEKs; assay type: cell-based, human; settings: 1 μM, FIG. 2
# Description: (§1) Add QIAzol® Lysis Reagent (QIAGEN Cat Number 79306) to the cells. Scrape the cells and place into a Falcon Polypropylene tube. Let stand at room temperature for 5 minutes. Add 1 ml of cells to microfuge tubes. Add 200 μl of chloroform, vortex, let stand for 5 minutes. Centrifuge at 4° C. for 15 minutes at 14,000 RPM. Add an equal volume of 70% ETOH (diluted with DEPC water). Add 600 μl to the RNeasy® column from the RNeasy® Mini Kit (QIAGEN Cat. Number 74106) centrifuge at 14,000 RPM at room temperature for 1 minute, discard flow-through. Add remainder of sample to the column, centrifuge, discard flow-through. Add 350 μl of RW1 buffer from the RNeasy® Mini Kit to the column, centrifuge at room temperature for 1 minute, discard flow-through. […] TaqMan technology was used for quantitative PCR for the evaluation of MMP, TNFα, TIMP, IL-8, ASAH1, SPTLC1, SMPD1, LASS2, TXNRD1, GPX3, GSR, CAT, ABCA1, ABCA2, ABCA12, ABCA13, ABCG1, decorin, and LXRα/β gene expression in keratinocytes and fibroblasts. […] Setup TaqMan with QuantiTect Multiplex PCR Kit (QIAGEN cat. Number 204543): 2× master mix: 25 μl; Single Tube Assay: 2.5 μl; Applied Biosystems Primers Probe set (part number 4308329)-18S forward primer: 0.25 μl, 18S reverse primer: 0.25 μl, 18S probe: 0.25 μl; water to 50 μl; 5 μl cDNA. […]
# MMP3 [1] = assay: TaqMan quantitative PCR, MMP3 gene expression in NHEKs; assay type: cell-based, human; settings: UV-exposed (8 J/m^2), 1 μM, FIG. 3
# Description: as §1
# TIMP1 [2] = assay: TaqMan quantitative PCR, TIMP1 gene expression in NHEKs; assay type: cell-based, human; settings: 1 μM, FIG. 4
# Description: as §1
# IL-8 = assay: TaqMan quantitative PCR, IL-8 gene expression in NHEKs; assay type: cell-based, human; settings: UV-exposed (8 J/m^2), 1 μM, FIG. 5
# Description: as §1
# ABCA1 = assay: TaqMan quantitative PCR, ABCA1 gene expression in NHEKs; assay type: cell-based, human; settings: 1 μM, FIG. 6A
# Description: as §1
# ABCA2 = assay: TaqMan quantitative PCR, ABCA2 gene expression in NHEKs; assay type: cell-based, human; settings: 1 μM, FIG. 6A
# Description: as §1
# ABCA12 = assay: TaqMan quantitative PCR, ABCA12 gene expression in NHEKs; assay type: cell-based, human; settings: 1 μM
# Description: as §1
# ABCA13 = assay: TaqMan quantitative PCR, ABCA13 gene expression in NHEKs; assay type: cell-based, human; settings: 1 μM, FIG. 6A
# Description: as §1
# ABCG1 = assay: TaqMan quantitative PCR, ABCG1 gene expression in NHEKs; assay type: cell-based, human; settings: 1 μM, FIG. 6A
# Description: as §1
# decorin = assay: TaqMan quantitative PCR, decorin gene expression in NHEKs; assay type: cell-based, human; settings: UV-exposed (8 J/m^2), 1 μM, FIG. 7
# Description: as §1
# MMP1 = assay: TaqMan quantitative PCR, MMP1 gene expression in BJ human fibroblasts; assay type: cell-based; settings: 5 ng/ml rhTNFα, 1 μM, FIG. 8A
# Description: (§2) Add QIAzol® Lysis Reagent (QIAGEN Cat Number 79306) to the cells. Scrape the cells and place into a Falcon Polypropylene tube. Let stand at room temperature for 5 minutes. Add 1 ml of cells to microfuge tubes. Add 200 μl of chloroform, vortex, let stand for 5 minutes. Centrifuge at 4° C. for 15 minutes at 14,000 RPM. Add an equal volume of 70% ETOH (diluted with DEPC water). Add 600 μl to the RNeasy® column from the RNeasy® Mini Kit (QIAGEN Cat. Number 74106) centrifuge at 14,000 RPM at room temperature for 1 minute, discard flow-through. Add remainder of sample to the column, centrifuge, discard flow-through. Add 350 μl of RW1 buffer from the RNeasy® Mini Kit to the column, centrifuge at room temperature for 1 minute, discard flow-through. […]
# (§3) TaqMan technology was used for quantitative PCR for the evaluation of MMP, TNFα, TIMP, IL-8, ASAH1, SPTLC1, SMPD1, LASS2, TXNRD1, GPX3, GSR, CAT, ABCA1, ABCA2, ABCA12, ABCA13, ABCG1, decorin, and LXRα/β gene expression in keratinocytes and fibroblasts. […]
# (§4) Setup TaqMan with QuantiTect Multiplex PCR Kit (QIAGEN cat. Number 204543): 2× master mix: 25 μl; Single Tube Assay: 2.5 μl; Applied Biosystems Primers Probe set (part number 4308329)—18S forward primer: 0.25 μl, 18S reverse primer: 0.25 μl, 18S probe: 0.25 μl; water to 50 μl; 5 μl cDNA. […]
# MMP3 [3] = assay: TaqMan quantitative PCR, MMP3 gene expression in BJ human fibroblasts; assay type: cell-based; settings: 5 ng/ml rhTNFα, 1 μM, FIG. 8B
# Description: as §2, §3, §4
# TIMP1 [4] = assay: TaqMan quantitative PCR, TIMP1 gene expression in BJ human fibroblasts; assay type: cell-based; settings: 1 μM, FIG. 9
# Description: as §2, §3, §4
# acid ceramidase (ASAH1) = assay: TaqMan quantitative PCR, ASAH1 gene expression in NHEKs; assay type: cell-based, human; settings: 1 μM, FIG. 10A
# Description: as §1
# [5] = tested on: serine palmitoyl transferase (SPTLC1); assay: TaqMan quantitative PCR, SPTLC1 gene expression in NHEKs; assay type: cell-based, human; settings: 1 μM, FIG. 10A
# Description: as §1
# [6] = tested on: sphingomyelin phosphodiesterase (SMPD1); assay: TaqMan quantitative PCR, SMPD1 gene expression in NHEKs; assay type: cell-based, human; settings: 1 μM, FIG. 10A
# Description: as §1
# [7] = tested on: ceramide synthase (LASS2); assay: TaqMan quantitative PCR, LASS2 gene expression in NHEKs; assay type: cell-based, human; settings: 1 μM, FIG. 10A
# Description: as §1
# [8] = tested on: thioredoxin reductase (TXNRD1); assay: TaqMan quantitative PCR, TXNRD1 gene expression in NHEKs; assay type: cell-based, human; settings: 1 μM, FIG. 11
# Description: as §1
# [9] = tested on: glutathione peroxidase (GPX3); assay: TaqMan quantitative PCR, GPX3 gene expression in NHEKs; assay type: cell-based, human; settings: 1 μM, FIG. 11
# Description: as §1
# [10] = tested on: glutathione reductase (GSR); assay: TaqMan quantitative PCR, GSR gene expression in NHEKs; assay type: cell-based, human; settings: 1 μM, FIG. 11
# Description: as §1
# catalase (CAT) = assay: TaqMan quantitative PCR, CAT gene expression in NHEKs; assay type: cell-based, human; settings: 1 μM, FIG. 11
# Description: as §1
smiles,measurement,setting,value
"O=S(=O)(c1ccccc1)N(CC(F)(F)F)c1ccc(C(O)(C(F)(F)F)C(F)(F)F)cc1 [T1317, N-(2,2,2-trifluoroethyl)-N-{4-[2,2,2-trifluoro-1-hydroxy-1-(trifluoromethyl)ethyl]phenyl}benzene sulfonamide]",expression of LXRα,LXRα; UV-exposed (8 J/m^2),induced
same,expression of LXRα,LXRα; UV-unexposed,induced
same,UV-mediated inhibition of LXRβ expression,LXRβ,reversed
same,UV-induced expression of TNFα,TNFα; UV-exposed (8 J/m^2),reduced
same,basal expression of TNFα,TNFα; UV-unexposed,reduced
same,UV-induced MMP-3 expression,MMP3 [1],inhibition
same,TIMP1 expression,TIMP1 [2]; UV-exposed (8 J/m^2),induced
same,TIMP1 expression,TIMP1 [2]; UV-unexposed,induced
same,UV-induced expression of IL-8,IL-8,reduced
same,ABCA1 expression,ABCA1,induction
same,ABCA2 expression,ABCA2,induction
same,ABCA12 expression,ABCA12; FIG. 6A,induction
same,UV-induced inhibition of ABCA12 expression,"ABCA12; UV-exposed (8 J/m^2), FIG. 6B",reversed
same,ABCA13 expression,ABCA13,induction
same,ABCG1 expression,ABCG1,induction
same,UVB-mediated inhibition of decorin expression,decorin,reversed
same,TNFα-induced MMP1 expression,MMP1,inhibition
same,TNFα-induced MMP-3 expression,MMP3 [3],inhibition
same,TIMP1 expression,TIMP1 [4]; TNFα-exposed (5 ng/ml rhTNFα),induced
same,TIMP1 expression,TIMP1 [4]; TNFα-unexposed,induced
same,ASAH1 expression,acid ceramidase (ASAH1),induction
same,SPTLC1 expression,[5],induction
same,SMPD1 expression,[6],induction
same,LASS2 expression,[7],induction
same,TXNRD1 expression,[8],induction
same,GPX3 expression,[9],induction
same,GSR expression,[10],induction
same,CAT expression,catalase (CAT),induction
